Earlier results in publication PMC6673652 (Nature protocols, 2018).
Where two headings read alike, the source gives them in different places.

How the values were obtained:
[1] = Cy5.5-labeled peptide, 5 μM, 3 hrs, previously tested

Compound	BBB organoid permeability (BBB organoids)	BBB penetration in vivo (in vivo)	also measured
Nc1cc(C(F)(F)F)c(-c2cc(N3CCOCC3)nc(N3CCOCC3)n2)cn1 [BKM120]	–	–	BBB crossing as known from literature: known to cross the BBB
ZSQIKIWFQNKRAKIKK [Engrailed-2]	Very high	–	–
ZKGTYKKKLMRIPLKGT [SVM3]	High	–	–
ZVSALK [Bip(2)]	Very high	Yes [6]	–
ZLYKKGPAKKGRPPLRGWFH [SVM4]	High	–	–
ZVELPPPVELPPPVELPPP [SAP(E)]	High	–	–
CC(C)(C)c1nc(-c2cccc(NS(=O)(=O)c3c(F)cccc3F)c2F)c(-c2ccnc(N)n2)s1 [Dabrafenib]	–	–	BBB penetration as known from literature: limited BBB penetration
ZRRRRRRRR [Polyarginine]	High	–	–
ZLRRERQSRLRRERQSR [DPV15]	Very high	Yes [6]	–
ZVRLPPPVRLPPPVRLPPP [SAP]	High	–	–
TFFYGGSRGKRNNFKTEEY [Angiopep-2]	High	Yes[6],[29]	BBB crossing as known from literature (in vivo): known to cross the BBB via receptor mediated transcytosis
ZVPALR [Bip(1)]	Very high	Yes [6]	–
ZVKRGLKLRHVRPRVTRMDV [DPV1047]	High	–	–
ZAGYLLGKINLKALAALAKKIL [Transportan 10]	–	–	BBB organoid permeability (BBB organoids; [1]): High
ZHARIKPTFRRLKWKYKGKFW [L-2]	High	–	–
ZPPRPPRPPRPPRPPR [(PPR)5]	High	–	–
ZRGGRLSYSRRRFSTSTGR [SynB1]	–	Yes [31]	–
ZRQVTIWFQNRRVKEKK [HoxA-13]	Very high	Yes [6]	–
ZRQIKIWFQNRRMKWKK [Penetratin]	High	Yes [31]	–
ZRKKRRQRRR [HIV-1 Tat]	–	–	BBB penetration in vivo: Yes [31]; BBB organoid permeability (BBB organoids; [1]): High
ZPLSSIFSRIGDP [PreS2-TLM]	–	–	BBB organoid permeability (BBB organoids; [1]): High
ZPPRPPRPPR [(PPR)3]	High	–	–
